Measured values published in patent publication US20260272878A1, “ADAR1 INHIBITORS AND USES THEREOF” (THE WISTAR INSTITUTE OF ANATOMY AND BIOLOGY, priority 2023, published 2026).
“Also recorded” adds a separate entry of the source.

What was measured:
ADAR2 = target: T1, ADAR2 (Homo sapiens, UniProt P78563); assay: Binding to ADAR2 (not shown)
T1 sequence (P78563 1-741): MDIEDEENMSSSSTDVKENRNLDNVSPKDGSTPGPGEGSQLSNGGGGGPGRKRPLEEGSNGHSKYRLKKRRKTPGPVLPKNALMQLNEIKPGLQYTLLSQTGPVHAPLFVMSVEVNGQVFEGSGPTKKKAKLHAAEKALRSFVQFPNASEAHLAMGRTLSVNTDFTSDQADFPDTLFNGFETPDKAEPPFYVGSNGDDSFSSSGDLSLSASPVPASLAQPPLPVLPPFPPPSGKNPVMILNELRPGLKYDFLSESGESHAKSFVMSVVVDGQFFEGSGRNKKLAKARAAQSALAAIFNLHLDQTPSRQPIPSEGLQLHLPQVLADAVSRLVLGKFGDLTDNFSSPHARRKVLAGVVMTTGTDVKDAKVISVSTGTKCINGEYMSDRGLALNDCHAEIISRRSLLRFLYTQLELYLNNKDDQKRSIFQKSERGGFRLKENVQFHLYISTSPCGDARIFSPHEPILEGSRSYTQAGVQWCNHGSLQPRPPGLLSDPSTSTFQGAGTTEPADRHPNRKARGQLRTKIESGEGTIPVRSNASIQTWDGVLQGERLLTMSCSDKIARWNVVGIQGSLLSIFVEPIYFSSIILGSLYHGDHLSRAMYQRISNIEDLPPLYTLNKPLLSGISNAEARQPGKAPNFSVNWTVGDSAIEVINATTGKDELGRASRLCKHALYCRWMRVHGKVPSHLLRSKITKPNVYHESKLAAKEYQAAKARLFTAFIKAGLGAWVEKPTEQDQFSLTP

[1] = system: IMR90 normal fibroblast cells; assay: Cell killing / viability, IMR90; format: cell-based
Procedure: FIGS. 8A-8C show analysis of ADAR1i-124 effects in cancer cells. […] Viability was examined using the Apo Tox-Glo assay system. Control, 0.3% DMSO. Data: mean±SD (n=3). Significant differences identified by two-tailed Student's t-tests: *P<0.05, n.s., not significant. (FIG. 8B) Western blotting analysis of HeLa cells treated with ADAR1i-124 (10 μM).
FIGS. 9A-9C show dose-dependent killing of cancer cells and activation of IFN signaling. […] YUMM1.7 (FIG. 9B) and HGS2 cells (FIG. 9C) were treated with ADAR1i-124 at 10 μM (12 hrs). RNA samples were analyzed by qRT-PCR to monitor ISG expression levels. Data: mean±SD (n=3). Significant differences were identified by two-tailed Student's t-tests: ***P<0.001.
Dose-dependent selective killing of telomerase reactivated cancer cells was determined (FIG. 9A).

YUMM1.7 cells = assay: Immunostaining (MAb J2) of unedited dsRNA fibers; format: cell-based, mouse; conditions: for Unedited dsRNA fiber structures in cells: immunostaining with MAb J2, YUMM1.7 cells
Description: FIGS. 7A-7C show analysis of ADAR1i-13 and analogs. […] IC50 values determined by dose-dependent in vitro editing assay are shown for ADAR1 inhibition positive compounds. […] Dumbbell-shaped dsRNA has been reported to form Z-RNA conformation and act as a strong IFN signaling activation triggers. ADAR1p150 mediated A-to-I editing suppresses Z-RNA structure transition and activation of IFN signaling.
It has been reported that the suppression ADAR1 editing activity results in binding of MDA5 to unedited dsRNAs, oligomerization of MDA5-dsRNA complexes, and formation of fiber-like structures (21, 44). These dsRNA fiber structures were detected in cells treated with ADAR1 inhibition active compounds, ADAR1i-13, ADAR1i-120, and ADAR1i-124, but not detected in cells treated with ADAR1 inhibition negative compounds (FIG. 7A).

HeLa cells = assay: Dot blot analysis for RNA:DNA hybrids (R-loops); format: cell-based, human; conditions: 10 μM for ADAR1i-124
ADAR1p110-WT = target: T2, ADAR1p110-WT (Homo sapiens, UniProt P55265); assay: Biacore SPR binding to ADAR1p110-WT
T2 construct: made in house; host or cells: Sf9 cells (baculovirus)
T2 sequence (P55265 1-931 isoform P55265-5): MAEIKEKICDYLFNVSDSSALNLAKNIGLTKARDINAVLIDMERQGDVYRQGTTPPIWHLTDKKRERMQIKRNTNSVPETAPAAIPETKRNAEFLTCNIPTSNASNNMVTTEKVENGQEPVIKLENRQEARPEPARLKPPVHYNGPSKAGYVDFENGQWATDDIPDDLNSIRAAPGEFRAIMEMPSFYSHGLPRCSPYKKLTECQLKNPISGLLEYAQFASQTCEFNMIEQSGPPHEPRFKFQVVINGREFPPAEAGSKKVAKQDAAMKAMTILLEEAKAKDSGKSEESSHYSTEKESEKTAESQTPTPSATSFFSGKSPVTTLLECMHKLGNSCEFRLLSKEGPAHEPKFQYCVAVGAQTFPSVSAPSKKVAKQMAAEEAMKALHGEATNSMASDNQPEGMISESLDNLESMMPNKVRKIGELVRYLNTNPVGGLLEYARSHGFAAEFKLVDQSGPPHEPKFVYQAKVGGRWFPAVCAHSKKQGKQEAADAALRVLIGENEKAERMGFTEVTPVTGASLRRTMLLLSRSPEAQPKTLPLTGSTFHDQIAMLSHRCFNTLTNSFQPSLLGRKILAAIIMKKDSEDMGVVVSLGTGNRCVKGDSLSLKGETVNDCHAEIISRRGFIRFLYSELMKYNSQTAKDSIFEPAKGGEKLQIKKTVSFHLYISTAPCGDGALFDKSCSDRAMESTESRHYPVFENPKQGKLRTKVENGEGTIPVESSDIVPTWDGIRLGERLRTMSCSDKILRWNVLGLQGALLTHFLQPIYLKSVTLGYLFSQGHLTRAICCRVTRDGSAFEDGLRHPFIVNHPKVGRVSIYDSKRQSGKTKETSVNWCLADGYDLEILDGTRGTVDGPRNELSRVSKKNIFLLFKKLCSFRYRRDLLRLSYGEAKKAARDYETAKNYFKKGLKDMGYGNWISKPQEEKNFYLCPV
Description: FIGS. 5A-5D show Biacore SPR analysis for binding of ADAR1i to ADAR1p110. (FIG. 5A) SPR analysis for binding kinetics of 8 compounds to ADAR1p110-WT. ADAR1 inhibition positive (ADAR1i-13, ADAR1i-120, ADAR1i-124) and negative compounds. (FIG. 5B, FIG. 5C) […] of SPR analysis for binding of ADAR1i-13 and ADAR1i-124 to ADAR1p110-WT and ADAR1p110-E912A as well as negative control proteins, GAPDH and HuR, are shown. […] ADAR1-E912, equivalent of ADAR2 E396, is located in the catalytic center.
No complete 3-D structure of ADAR1 is currently available. […] The glutamate E912 and E396 in ADAR1 and ADAR2, respectively, plays an important proton transfer function during hydrolytic deamination reaction (42, 43).

Row | SMILES | Binding to ADAR2 (ADAR2) | Killing of IMR90 cells [1] | Unedited dsRNA fiber structures in cells (YUMM1.7 cells) | Formation of R-loops (RNA:DNA hybrids) (HeLa cells) | Binding to ADAR1p110-WT (ADAR1p110-WT) | RNase III sensitivity of induced dsRNA fibers (YUMM1.7 cells; RNase III treatment)
1 | N#Cc1ccc(NC(=O)c2sc3ccccc3c2Cl)cc1 [ADAR1i-13, 3-chloro-N-(4-cyanophenyl)-1-benzothiophene-2-carboxamide] | bound also to ADAR2 | not ALT U2OS cells or IMR90 normal fibroblast cells | detected; also recorded: unedited dsRNA fibers induced | increased formation of R-loops | direct binding | –
2 | N#Cc1ccccc1NC(=O)c1sc2ccccc2c1Cl [ADAR1i-120] | – | not ALT U2OS cells or IMR90 normal fibroblast cells | detected; also recorded: unedited dsRNA fibers induced | increased formation of R-loops | direct binding | –
3 | N#Cc1ccc(NC(=O)c2c(Cl)c3ccccc3n2CO)cc1 [ADAR1i-124] | bound also to ADAR2 | not ALT U2OS cells or IMR90 normal fibroblast cells; also recorded: unaffected | detected; also recorded: unedited dsRNA fibers induced | increased formation of R-loops; also recorded: RNA:DNA hybrids induced | direct binding | abolished by RNase III treatment; also recorded: sensitive to RNase III treatment
